Here are results for 15 molecules from ChEMBL document CHEMBL4196120, “Inhibition of Connexin Hemichannels by New Amphiphilic Aminoglycosides without Antibiotic Activity” (ACS Med Chem Lett, 2018).

In brackets after ≈: the same amount, converted by molar mass. Activity calls are given as the source filed them. The calls are words filed in the database; no cut-off is given here. Where only a bound is given, the exact number is not on record here.

Series [1] has as its target Gap junction beta-2 protein (Homo sapiens) (UniProt P29033). The series is described as follows: Inhibition of recombinant human Cx26 expressed in Escherichia coli LB2003 assessed as reduction in cell growth measured after 18 hrs.
In series [2] the test system is HeLa. The series is described as follows: Cytotoxicity against human HeLa cells assessed as reduction in cell viability at 100 ug/ml after 24 hrs by MTT assay relative to control. Format: cell-based. (Formazan colour is commonly taken as a measure of viable cells.)
In the next series the test system is Cx26. The series is described as follows: Ratio of compound effect for cytotoxicity against human HeLa cells to IC50 for recombinant human Cx26 expressed in Escherichia coli LB2003. Format: toxicity.
In series [3] the test system is HeLa. The series is described as follows: Cytotoxicity against human HeLa cells assessed as reduction in cell viability up to 100 ug/ml after 24 hrs by MTT assay. Format: cell-based.
For series [4], the target named is Gap junction beta-2 protein (Homo sapiens) (UniProt P29033). The series is described as follows: Inhibition of recombinant human Cx26 expressed in Escherichia coli LB2003 assessed as reduction in cell growth at 100 uM measured after 18 hrs.
Another series deals with Staphylococcus aureus. The series is described as follows: Toxicity against Staphylococcus aureus ATCC 25923 measured after 18 to 24 hrs. Format: organism-based. Conditions: in vivo.

`NC[C@H]1O[C@H](O[C@H]2[C@H](O)[C@@H](O[C@@H]3O[C@H](COCc4ccc(F)cc4)[C@@H](OCc4ccc(F)cc4)[C@H](N)[C@H]3O)[C@H](N)C[C@@H]2N)[C@H](O)[C@@H](O)[C@@H]1O`: the Imax in series [1] is 94%. Moreover, in the series on HeLa [2], the Activity was 40 to 60%. In addition, the selectivity ratio in the series with Cx26 was at most 20.
Take `CCCCCCOC[C@H]1O[C@@H](O[C@@H]2[C@@H](O)[C@H](O[C@H]3O[C@H](CN)[C@@H](O)[C@H](O)[C@H]3O)[C@@H](N)C[C@H]2N)[C@H](O)[C@@H](N)[C@@H]1OCCCCCC`: in series [1], the Imax came to 99%. The Activity entry in the series on HeLa [3] is reported as “Non-Toxic”.
With `CO[C@@H]1[C@@H](O[C@@H]2O[C@H](CO)[C@@H](O)[C@H](N)[C@H]2OC)[C@H](N)C[C@H](N)[C@H]1O[C@H]1O[C@H](CN)[C@@H](OC)[C@H](OC)[C@H]1OC`, the inhibition result in series [4] was “inactive”. Also, the Activity result in the series with HeLa [3] is “Non-Toxic”.
Consider `CCCCOC[C@H]1O[C@@H](O[C@@H]2[C@@H](O)[C@H](O[C@H]3O[C@H](CN)[C@@H](O)[C@H](O)[C@H]3O)[C@@H](N)C[C@H]2N)[C@H](O)[C@@H](N)[C@@H]1OCCCC`, for which the Imax in series [1] was determined as 99%. Further, in the series on HeLa [3], the Activity entry is reported as “Non-Toxic”.
For the molecule `NC[C@H]1O[C@H](O[C@H]2[C@H](O)[C@@H](O[C@@H]3O[C@H](COCc4cccc5ccccc45)[C@@H](OCc4cccc5ccccc45)[C@H](N)[C@H]3O)[C@H](N)C[C@@H]2N)[C@H](O)[C@@H](O)[C@@H]1O`, the Imax in series [1] worked out at 94%. Moreover, in the series with Staphylococcus aureus, the MIC stood at 64 µg/mL (≈ 83.7 µM). In addition, in the series with HeLa [3], the Activity result is recorded as “Non-Toxic”.
With `Cc1ccc(COC[C@H]2O[C@@H](O[C@@H]3[C@@H](O)[C@H](O[C@H]4O[C@H](CN)[C@@H](O)[C@H](O)[C@H]4O)[C@@H](N)C[C@H]3N)[C@H](O)[C@@H](N)[C@@H]2OCc2ccc(C)cc2)cc1`, the Imax in series [1] worked out at 94%. Besides, the Activity result in the series with HeLa [3] is on record as “Non-Toxic”.
Take `CCCCCCCCOC[C@H]1O[C@@H](O[C@@H]2[C@@H](O)[C@H](O[C@H]3O[C@H](CN)[C@@H](O)[C@H](O)[C@H]3O)[C@@H](N)C[C@H]2N)[C@H](O)[C@@H](N)[C@@H]1OCCCCCCCC`: the Imax in series [1] stood at 99%. Further, in the series on HeLa [3], the Activity result is on record as “Non-Toxic”.
As for `NC[C@H]1O[C@H](O[C@H]2[C@H](O)[C@@H](O[C@@H]3O[C@H](COCc4ccc(Cl)cc4)[C@@H](OCc4ccc(Cl)cc4)[C@H](N)[C@H]3O)[C@H](N)C[C@@H]2N)[C@H](O)[C@@H](O)[C@@H]1O`, the Imax in series [1] came out at 94%. For the same molecule, the Activity result in the series on HeLa [3] is listed as “Non-Toxic”.
As for `CCCCCCO[C@H]1[C@H](N)[C@@H](O)[C@H](O[C@@H]2[C@@H](O)[C@H](O[C@H]3O[C@H](CN)[C@@H](O)[C@H](O)[C@H]3O)[C@@H](N)C[C@H]2N)O[C@@H]1CO`, the Imax in series [1] was determined as 99%. Also, the Activity entry in the series with HeLa [3] was “Non-Toxic”.
Consider `COc1ccc(COC[C@H]2O[C@@H](O[C@@H]3[C@@H](O)[C@H](O[C@H]4O[C@H](CN)[C@@H](O)[C@H](O)[C@H]4O)[C@@H](N)C[C@H]3N)[C@H](O)[C@@H](N)[C@@H]2OCc2ccc(OC)cc2)cc1`, for which, in series [1], the Imax was 94%. Also, in the series on HeLa [3], the Activity entry is recorded as “Non-Toxic”.
Take `CO[C@@H]1[C@@H](O[C@@H]2O[C@H](COCc3ccccc3)[C@@H](OCc3ccccc3)[C@H](N)[C@H]2OC)[C@H](N)C[C@H](N)[C@H]1O[C@H]1O[C@H](CN)[C@@H](OC)[C@H](OC)[C@H]1OC`: the Imax in series [1] was 99%. Besides, in the series on HeLa [3], the Activity result is “Non-Toxic”.
Regarding `CCCCCCCCCOC[C@H]1O[C@@H](O[C@@H]2[C@@H](O)[C@H](O[C@H]3O[C@H](CN)[C@@H](O)[C@H](O)[C@H]3O)[C@@H](N)C[C@H]2N)[C@H](O)[C@@H](N)[C@@H]1OCCCCCCCCC`, the Imax in series [1] worked out at 99%. Besides, the Activity entry in the series with HeLa [3] was “Non-Toxic”.
For `NC[C@H]1O[C@H](O[C@H]2[C@H](O)[C@@H](O[C@@H]3O[C@H](COCc4ccc5ccccc5c4)[C@@H](OCc4ccc5ccccc5c4)[C@H](N)[C@H]3O)[C@H](N)C[C@@H]2N)[C@H](O)[C@@H](O)[C@@H]1O`, the Imax in series [1] was 94%. Also, the Activity with HeLa [2] fell in the range of 40 to 60%. Moreover, in the series with Cx26, the selectivity ratio is at most 20.
For `NC[C@H]1O[C@H](O[C@H]2[C@H](O)[C@@H](O[C@@H]3O[C@H](COCc4cccc(-c5ccccc5)c4)[C@@H](OCc4cccc(-c5ccccc5)c4)[C@H](N)[C@H]3O)[C@H](N)C[C@@H]2N)[C@H](O)[C@@H](O)[C@@H]1O`, the Imax in series [1] stood at 94%. The molecule further came in with an MIC in the series with Staphylococcus aureus of 16 µg/mL (≈ 19.6 µM). Moreover, the Activity with HeLa [2] was in the range of 40 to 60%. In addition, in the series with Cx26, the selectivity ratio is at most 20.
Take `NC[C@H]1O[C@H](O[C@H]2[C@H](O)[C@@H](O[C@@H]3O[C@H](COCc4ccccc4)[C@@H](OCc4ccccc4)[C@H](N)[C@H]3O)[C@H](N)C[C@@H]2N)[C@H](O)[C@@H](O)[C@@H]1O`: in series [1], the Imax came out at 99%. Moreover, the Activity entry in the series with HeLa [3] is listed as “Non-Toxic”.
